Results taken from US6159940A, “Method for modulating hemopoiesis” (Immunotech Developments Inc., priority 1999, dated 2000).

Key:
[1] = tested on: lymphocytes in guinea pigs; assay: E-rosette formation test after trypsin treatment; assay type: cell-based
Source text: The biological action of the novel peptide was studied in guinea pigs in the conventional E-rosette formation test.

CFU-S = assay: Reconstitution of CFU-S and nucleated cells in irradiated mice (4 Gy), i.v. versus i.m.; assay type: in vivo
Procedure: A further study of the effect of the peptide, using different methods of administration, on the dynamics of reconstitution of CFU-S, Nucleated blood Cells (NC) in the femoral bone marrow and peritheric blood (mm) of irradiated mice (4 Gy) was conducted.
Donor mice were irradiated with γ-rays in the dose of 4 Gy. Then they received the petide i.v. or i.m. 1, 2, 3, or 4 times, once a day, starting from the 1 first hour of the 3rd day after the irradiation (10 μg/kg per injection). […] At different intervals after the irradiation 10 mice were taken from each group to determine CFU-S in the bone marrow. The mice were killed, cell suspensions were prepared from the bone marrow and injected to lethally irradiated recipients. NC were counted in the femoral bone marrow and peritheric blood, and the lymphocyte percentage was found.

CFU-S-8 and CFU-S-12 = assay: Cytostatic (Cytosine-Arabinoside)-induced cytopenia: karyocytes, CFU-S-8, CFU-S-12 in bone marrow; assay type: in vivo, mice; conditions: donor bone marrow; CA 20 mg/kg i.p. once; N 10 μg/kg once daily, three injections
Procedure: Used as a cytostatic, Cytosine-Arabinoside (CA) was intraperitoneally injected to donor mice once in the dose of 20 mg/kg. The peptide was given according to the following scheme: 10 μg/kg once daily, three injections starting from the first hour after CA. Intact mice received H-Ile-Glu-Trp-OH in the same doses and according to the same schedule. On day 8 after the cytostatic injection, determined were karyocyte count in the donor bone marrow and the content of hemopoietic progenitors of different polipotencies: committed CFU-S-8 and CFU-S-12. CFU-8 are committed stem cells which later undergo differentiation. CFU-12 are the polypotent cells, from which stem cells can be recruited (i.e. they maintain the pool of stem cells). This is a slowly proliferating cell population, mainly in G phase. That is why it is important to evaluate the effect of a preparation on the pools of both committed (CFU-8) and polypotent (CFU- 12) cells. To this end, bone marrow was extracted from donor's femoral bones and injected to lethally irradiated recipients. After the cell injections, every test group was divided into 2 subgroups: some animals were killed on day 8, the other on day 12. Spleens were taken out and the colonies were counted. The tests were carried out on 105 mice.

Acute toxicity in dogs = assay type: in vivo; conditions: 6 dogs
Procedure: To establish the safety of use of the peptides, toxicity tests were performed. Toxicity tests where performed in accordance Pharmacological Committee Russian Federation (RF) "guidelines for the pre-clinical study of general toxic activity of new pharmacological compounds". M., 1985.
Acute toxicity was studied in 20 guinea pigs and 6 dogs. […] The drug has a wide therapeutic range.

[2] = Effect on arterial pressure, cats; assay type: in vivo
Source text: The effects of H-Ile-Glu-Trp-OH on ECG and arterial pressure were studied in guinea pigs and cats.
The influence of H-Ile-Glu-Trp-OH on arterial pressure was studied in 10 cats.

[3] = Local irritating effect, guinea pigs; assay type: in vivo
Source text: The local irritating effect of H-Ile-Glu-Trp-OH was studied in 20 guinea pigs and 5 rabbits.

Substance: H-Ile-Glu-Trp-OH
- in vitro activity relative to other known compounds [1]: 10^3 times
- E-rosette formation after treatment with trypsin and compound ([1]; 10^-6 mg/ml): 61.4
- E-rosette formation after treatment with trypsin and compound ([1]; 10^-7 mg/ml): 63.9
- E-rosette formation after treatment with trypsin and compound ([1]; 10^-8 mg/ml): 64.8
- E-rosette formation after treatment with trypsin and compound ([1]; 10^-9 mg/ml): 60.2
- E-rosette formation after treatment with trypsin and compound ([1]; 10^-10 mg/ml): 37.5
- E-rosette formation after treatment with trypsin and compound ([1]; 10^-11 mg/ml): 40.0
- E-rosette formation after treatment with trypsin and compound ([1]; 10^-12 mg/ml): 34.3
- NC content in the bone marrow (CFU-S; IM 10 μg/kg): no effect
- reconstitution of the CFU-S pool (CFU-S; IM 10 μg/kg (especially 1, 2, 3 times)): positively influenced the reconstitution of the CFU-S pool earlier, beginning from day 8
- reconstitution of the CFU-S pool (CFU-S; i.v. 10 μg/kg 1, 3, or 4 times): helped better reconstitution of the CFU-S pool by day 14 only
- Day 8 COUNT CFU-S-8 (CFU-S-8 and CFU-S-12): 2805 ± 232
- Day 8 COUNT CFU-S-12 (CFU-S-8 and CFU-S-12): 2930 ± 152
- Day 8 COUNT Karyocytes (CFU-S-8 and CFU-S-12): 23.0 ± 0.9 × 10^6
- acute toxicity (Acute toxicity in dogs): No toxic effects were observed
- ECG readings and arterial pressure [2]: No significant difference from control
- local irritating effect [3]: no local irritating effect
